Laboratory results as given in patent US20060004088A1, “Furan derivatives for preventing and curing osteoporosis and pharmaceutical compositions containing the same” (OCT INC., priority 2002, published 2006).
Entries after “also recorded” stand apart in the source; their conditions may differ.

Assays:
[1] = test system: osteoclast pregenitor cells; assay: Inhibition rates of furan derivatives versus osteoclast formation (TRAP staining); type: cell-based, mice; settings: TRAP-positive multinucleated cells, untreated control set as 100%
Outline: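 Non-adherent mouse bone-marrow osteoclast precursors cultured 8 days with 20 ng/ml M-CSF and 30 ng/ml RANKL in presence of compound. TRAP-positive cells with ≥3 nuclei counted; inhibition expressed relative to untreated control set at 100%.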

[2] = test system: transcriptional factor Runx2; assay: Runx2 expression, p6xOSE2-Luc luciferase assay in C2C12 cells; type: cell-based, mouse
Description: (§1) In the following tests, three kinds of cell lines were used. The human osteosarcoma cell lines, MG-63 (ATCC No. CRL-1427) and HOS (ATCC No. CRL-1543), and mouse muscle C2C12 muscle cells (ATCC No. CRL-1772) were purchased from ATCC (American Type Culture Collection, Rockville, USA), and cultured in Dulbecco's modified Eagle's medium (DMEM) supplemented with 10% fetal bovine serum (FBS).
Primarily, transient transfection was carried out using a p6xOSE2-Luc vector, which was prepared by inserting into a pGL3 promoter vector six tandem copies of the OSE2 motif, the binding site of the transcriptional factor Runx2 that is a critical regulator for osteoblast differentiation. Runx2 expression levels were determined by luciferase assay. The test procedure will be described in more detail, as follows.
C2C12 cells were plated onto 6-well plates at a density of 1(10^5 cells per well, and cultured for 24 hrs in a 5% CO2 incubator.
Then, the cells transiently transfected with the p6xOSE2-Luc vector using a transfection reagent, LipofectAmine, as follows. The plasmid DNA was reacted with the transfection reagent for 15 min to form p6xOSE2-Luc DNA:lipofectamine complexes. During this reaction, culture medium was removed from each well of the plates, the cells were washed with FBS-free DMEM, and 800 μl of FBS-free DMEM was added to each well. […]

osteoclasts = assay: Resorption activity of osteoclasts on calcium phosphate-coated plates (resorption pit area); type: cell-based, mice; settings: for Resorption activity of osteoclasts, %: control = 100; for area of resorption pits compared to the control: text summary, concentration not stated
Description: First, bone marrow cells were isolated, as follow. After sacrificing 7-9 week female mice by cervical dislocation, femur and tibia were excised aseptically while removing attached soft tissues. After cutting both ends of long bones, 1 ml of an enzyme solution, containing 0.1% collagenase (Gibco), 0.05% trypsin and 0.5 mM EDTA (Gibco), was injected to the bone marrow cavity at one end using a syringe with a 26-guage needle, and bone marrow was then collected. After shaking the recovered bone marrow for 30 min, bone marrow cells were collected, and cultured in α-minimum essential medium (α-MEM) supplemented with 10% FBS for 24 hrs. Then, non-adherent cells were collected, which are osteoclast pregenitors, aliquotted onto culture plates at a density of 2×10^5 cells per well, and cultured for 8 days in α-MEM supplemented with 20 ng/ml of macrophage-colony stimulating factor (M-CSF, Peprotech, USA) and 30 ng/ml RANKL (Peprotech, USA). During the 8 days of culturing, the cells were treated with the Compound 1. Thereafter, osteoclast formation was investigated by fixing the cultured cells and then carrying out TRAP staining, as described in the following Experimental Example 2.2. In addition, resorption activity of osteoclasts was investigated by measuring the absorption area after removing osteoclasts in cultures in calcium phosphate-coated plates, as described in Experimental Example 2.3, below.
The differentiated osteoclasts were cultured on calcium phosphate-coated plates (OAASTM, OCT, Korea) in order to evaluate resorption activity of the cells. After removing culture medium, to remove the adherent cells, the plates were washed with distilled water three times, and incubated in 5% sodium hypochlorite for 5 min. After washing again with distilled water and drying the plates, the area of formed resorption pits was calculated by means of an Image Pro Plus software.

osteoprotegerin (OPG) = assay: Osteoprotegerin (OPG) expression in MG63 cells, OPG ELISA; type: cell-based, human; settings: for OPG expression level in MG63 cells, %: control = 100
Description: as §1
When MG63 cells grew confluently on 96-well plates, […] of FBS-free DMEM containing various concentrations of the Compound 1 was added to each well. After incubation for 16 hrs, the culture supernatants were collected. The amount of OPG released into the medium was determined using an OPG ELISA kit.

[3] = test system: ovariectomized female white mice; assay: Preventive effect on osteoporosis, bone mineral densitometer; type: in vivo; settings: for Change in BMD, %: oral 10 mg per mouse
Description: After ovariectomy, female white mice weighing about 250 g were orally administered with 10 mg of the Compound 1 per mice for four weeks. Bone mineral density (BMD) was measured before the ovariectomy and every week during the administration of the Compound 1, using a bone mineral densitometer, XCT 540 Research SA made in Germany.
After anesthetizing the mice being bred in cages by intraperitoneal injection of a mixture of Ketamine HCl (ketara 10 mg/kg) and 2% xylazine HCl (Roupun 0.15 ml/kg), BMD measurement was made at a voxel size of 0.1×0.1 mm^2 and threshold value 280 mg/cm^2 for cancellous bone and 500 mg/cm^2 for compact bone. The analysis sites at the proximal tibias were determined by Scout scans (10 mm/sec), and BMD was measured at three slices at the determined sites by CT scans (7 mm/sec). BMD measurement was performed twice or more at the same every week during four weeks.

SMILES: O=Cc1ccc(CO)o1 [Compound 1, 5-hydroxymethylfuran-2-carboxyaldehyde]
- Inhibition rate against osteoclast formation, % ([1]; 0.1 μM): 0%
- Inhibition rate against osteoclast formation, % ([1]; 1 μM): 0%
- Inhibition rate against osteoclast formation, % ([1]; 10 μM): 30%
- effect on activity of Runx2 (in words) [2]: increase the activity of Runx2
- Resorption activity of osteoclasts, % (osteoclasts; 10^−4 M Compound 1, area of resorption pits): 52.34 ± 8.28%
- Resorption activity of osteoclasts, % (osteoclasts; 10^−5 M Compound 1, area of resorption pits): 46.92 ± 3.60%
- Resorption activity of osteoclasts, % (osteoclasts; 10^−6 M Compound 1, area of resorption pits): 41.75 ± 14.07%
- Resorption activity of osteoclasts, % (osteoclasts; 10^−7 M Compound 1, area of resorption pits): 61.46 ± 10.35%
- Resorption activity of osteoclasts, % (osteoclasts; 10^−8 M Compound 1, area of resorption pits): 66.03 ± 7.49%
- area of resorption pits compared to the control (osteoclasts): about 50%
- area of resorption pits compared to the control (osteoclasts; listed as Example 1): inhibit bone resorption activity of osteoclasts
- effect on expression of osteoprotegerin (OPG) in osteoblasts (in words) (osteoprotegerin (OPG)): increases the expression of osteoprotegerin (OPG)
- OPG expression level in MG63 cells, % (osteoprotegerin (OPG); 10^−6 M Compound 1, 16 hrs): 866.90 ± 10.59%
- OPG expression level in MG63 cells, % (osteoprotegerin (OPG); 10^−8 M Compound 1, 16 hrs): 204.30 ± 14.96%
- BMD after four weeks of administration compared to before ovariectomy (in words) ([3]; oral 10 mg/day for four weeks after ovariectomy): increase in BMD; also recorded: remarkably increased bone mineral density (BMD)
- Change in BMD, % ([3]; week 1 after ovariectomy, control −7.5): −2.5%
- Change in BMD, % ([3]; week 2 after ovariectomy, control −11.6): −3.2%
- Change in BMD, % ([3]; week 3 after ovariectomy, control −14.9): −1.8%
- Change in BMD, % ([3]; week 4 after ovariectomy, control −18.6): 3.7%
